# Experimental data reported in patent publication US12161722B2, “Bifunctional heterocyclic compound having BTK degradation function via ubiquitin proteasome pathway, and use thereof” (KOREA RESEARCH INSTITUTE OF CHEMICAL TECHNOLOGY, priority 2021, dated 2024).
# Biological target: T1, WT BTK protein (Homo sapiens, UniProt Q06187)
# T1 construct: measured for intracellular BTK protein levels by Western blotting; endogenous in cells; host or cells: TMD-8 or RAMOS cells
# Assay: BTK protein degradation assay (Western blotting), WT BTK
# Format: cell-based
# Conditions: concentration range accounting for 50% degradation of WT BTK protein, TMD-8 or RAMOS cells, 24 hours
# In short: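 TMD-8 cells (1×10^6 cells/mL) treated 24 h with compound serial dilutions, then lysed in RIPA. Equal protein loads analysed by Western blot for BTK with GAPDH/β-actin as loading controls; activity binned by concentration giving 50% WT BTK degradation.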
# T1 sequence (Q06187 whole entry): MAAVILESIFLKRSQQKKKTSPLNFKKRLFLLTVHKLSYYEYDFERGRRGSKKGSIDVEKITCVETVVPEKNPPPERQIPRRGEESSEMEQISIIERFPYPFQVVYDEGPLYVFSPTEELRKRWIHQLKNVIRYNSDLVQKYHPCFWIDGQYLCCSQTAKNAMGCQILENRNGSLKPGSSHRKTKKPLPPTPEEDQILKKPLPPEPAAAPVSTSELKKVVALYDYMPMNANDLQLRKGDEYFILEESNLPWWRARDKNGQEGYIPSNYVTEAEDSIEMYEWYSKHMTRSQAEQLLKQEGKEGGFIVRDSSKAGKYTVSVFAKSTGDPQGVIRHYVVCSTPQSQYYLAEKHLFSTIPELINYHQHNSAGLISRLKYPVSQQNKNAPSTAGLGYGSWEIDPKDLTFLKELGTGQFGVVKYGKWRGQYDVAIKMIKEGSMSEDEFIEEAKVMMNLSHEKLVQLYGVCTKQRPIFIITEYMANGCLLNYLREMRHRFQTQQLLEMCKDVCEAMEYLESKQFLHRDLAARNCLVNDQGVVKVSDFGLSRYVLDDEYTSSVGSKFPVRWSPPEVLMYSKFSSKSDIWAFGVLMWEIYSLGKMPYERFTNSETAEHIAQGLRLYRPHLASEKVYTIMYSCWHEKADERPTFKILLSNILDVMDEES
row,DC50 [µM],Compound
1,0.01 to 1,"Cc1cccc(C)c1Nc1nn(C)c2nc(Nc3ccc4c(c3)CN(C(=O)CN3CCN(c5ccc6c(c5)C(=O)N(C5CCC(=O)NC5=O)C6=O)CC3)CC4)ncc12 (centres unmarked) [Compound 93, 5-(4-(2-(7-((3-((2,6-dimethylphenyl)amino)-1-methyl-1H-pyrazolo [3,4-d]pyrimidin-6-yl)amino)-3,4-dihydroisoquinolin-2 (1H)-yl)-2-oxoethyl)piperazin-1-yl)-2-(2,6-dioxopiperidin-3-yl)isoindoline-1,3-dione]"
2,0.01 to 1,"Cc1cccc(C)c1Nc1nn(C)c2nc(Nc3ccc4c(c3)CN(CC(=O)NCc3ccc5c(c3)CN(C3CCC(=O)NC3=O)C5=O)CC4)ncc12 (centres unmarked) [Compound 94, 2-(7-((3-((2,6-dimethylphenyl)amino)-1-methyl-1H-pyrazolo[3,4-d]pyrimidin-6-yl)amino)-3,4-dihydroisoquinolin-2 (1H)-yl)-N-((2-(2,6-dioxopiperidin-3-yl)-1-oxoisoindolin-5-yl)methyl)acetamide]"
3,0.01 to 1,"Cc1cccc(C)c1Nc1nn(C)c2nc(Nc3ccc4c(c3)CN(CC(=O)N3CCN(c5ccc6c(c5)C(=O)N(C5CCC(=O)NC5=O)C6=O)CC3)CC4)ncc12 (centres unmarked) [Compound 95, 5-(4-(2-(7-((3-((2,6-dimethylphenyl)amino)-1-methyl-1H-pyrazolo[3,4-d]pyrimidin-6-yl)amino)-3,4-dihydroisoquinolin-2 (1H)-yl)acetyl)piperazin-1-yl)-2-(2,6-dioxopiperidin-3-yl)isoindoline-1,3-dione]"
4,0.0001 to 0.01,"Cc1cccc(C)c1Nc1nn(C)c2nc(Nc3ccc4c(c3)CN(C(=O)Nc3ccc5c(c3)CN(C3CCC(=O)NC3=O)C5=O)CC4)ncc12 (centres unmarked) [Compound 96, 7-((3-((2,6-dimethylphenyl)amino)-1-methyl-1H-pyrazolo[3,4-d]pyrimidin-6-yl)amino)-N-(2-(2,6-dioxopiperidin-3-yl)-1-oxoisoindolin-5-yl)-3,4-dihydroisoquinoline-2 (1H)-carboxamide]"
5,0.0001 to 0.01,"Cc1cccc(C)c1Nc1nn(C)c2nc(Nc3ccc4c(c3)CN(CC(=O)NC3CCN(c5ccc6c(c5)C(=O)N(C5CCC(=O)NC5=O)C6=O)CC3)CC4)ncc12 (centres unmarked) [Compound 97, 2-(7-((3-((2,6-dimethylphenyl)amino)-1-methyl-1H-pyrazolo[3,4-d]pyrimidin-6-yl)amino)-3,4-dihydroisoquinolin-2 (1H)-yl)-N-(1-(2-(2,6-dioxopiperidin-3-yl)-1,3-dioxoisoindolin-5-yl)piperidin-4-yl)acetamide]"
6,0.0001 to 0.01,"Cc1cccc(C)c1Nc1nn(C)c2nc(Nc3ccc4c(c3)CN(C(=O)CNCc3ccc5c(c3)CN(C3CCC(=O)NC3=O)C5=O)CC4)ncc12 (centres unmarked) [Compound 98, 3-(5-(((2-(7-((3-((2,6-Dimethylphenyl)amino)-1-methyl-1H-pyrazolo[3,4-d]pyrimidin-6-yl)amino)-3,4-dihydroisoquinolin-2 (1H)-yl)-2-oxoethyl)amino)methyl)-1-oxoisoindolin-2-yl)piperidin-2,6-one]"
7,0.0001 to 0.01,"Cc1cccc(C)c1Nc1nn(C)c2nc(Nc3ccc(CCNC(=O)C4CCN(c5ccc6c(c5)C(=O)N(C5CCC(=O)NC5=O)C6=O)CC4)cc3)ncc12 (centres unmarked) [Compound 100, N-(4-((3-((2,6-dimethylphenyl)amino)-1-methyl-1H-pyrazolo[3,4-d]pyrimidin-6-yl)amino)phenethyl)-1-(2-(2,6-dioxopiperidin-3-yl)-1,3-dioxoisoindolin-5-yl)piperidine-4-carboxamide]"
8,0.01 to 1,"Cc1cccc(C)c1Nc1nn(C)c2nc(Nc3ccc(CCNC(=O)C4CCN(CC(=O)Nc5ccc6c(c5)C(=O)N(C5CCC(=O)NC5=O)C6=O)CC4)cc3)ncc12 (centres unmarked) [Compound 101, N-(4-((3-((2,6-dimethylphenyl)amino)-1-methyl-1H-pyrazolo[3,4-d]pyrimidin-6-yl)amino)phenethyl)-1-(2-((2-(2,6-dioxopiperidin-3-yl)-1,3-dioxoisoindolin-5-yl)amino)-2-oxoethyl)piperidine-4-carboxamide]"
9,0.01 to 1,"Cc1cccc(C)c1Nc1nn(C)c2nc(Nc3ccc(CCNC(=O)C4CCN(C(=O)Nc5ccc6c(c5)CN(C5CCC(=O)NC5=O)C6=O)CC4)cc3)ncc12 (centres unmarked) [Compound 102, N4-(4-((3-((2,6-Dimethylphenyl)amino)-1-methyl-1H-pyrazolo[3,4-d]pyrimidin-6-yl)amino)phenethyl)-N1-(2-(2,6-dioxopiperidin-3-yl)-1-oxoisoindolin-5-yl)piperidine-1,4-dicarboxamide]"
10,0.01 to 1,"Cc1cccc(C)c1Nc1nn(C)c2nc(Nc3ccc4c(c3)CN(CC(=O)N3CCN(c5ccc6c(c5)CN(C5CCC(=O)NC5=O)C6=O)CC3)CC4)ncc12 (centres unmarked) [Compound 103, 3-(5-(4-(2-(7-((3-((2,6-dimethylphenyl)amino)-1-methyl-1H-pyrazolo[3,4-d]pyrimidin-6-yl)amino)-3,4-dihydroisoquinolin-2 (1H)-yl)acetyl)piperazin-1-yl)-1-oxoisoindolin-2-yl)piperidin-2,6-one]"
11,0.0001 to 0.01,"Cc1cccc(C)c1Nc1nn(C)c2nc(Nc3ccc4c(c3)CN(C(=O)CN3CCN(c5ccc6c(c5)CN(C5CCC(=O)NC5=O)C6=O)CC3)CC4)ncc12 (centres unmarked) [Compound 104, 3-(5-(4-(2-(7-((3-((2,6-Dimethylphenyl)amino)-1-methyl-1H-pyrazolo[3,4-d]pyrimidin-6-yl)amino)-3,4-dihydroisoquinolin-2 (1H)-yl)-2-oxoethyl)piperazin-1-yl)-1-oxoisoindolin-2-yl)piperidin-2,6-one]"
12,0.0001 to 0.01,"Cc1cccc(C)c1Nc1nn(C)c2nc(Nc3ccc4c(c3)CN(C(=O)COc3ccc5c(c3)CN(C3CCC(=O)NC3=O)C5=O)CC4)ncc12 (centres unmarked) [Compound 105, 3-(5-(2-(7-((3-((2,6-Dimethylphenyl)amino)-1-methyl-1H-pyrazolo[3,4-d]pyrimidin-6-yl)amino)-3,4-dihydroisoquinolin-2 (1H)-yl)-2-oxoethoxy)-1-oxoisoindolin-2-yl)piperidin-2,6-one]"
13,0.01 to 1,"Cc1cccc(C)c1Nc1nn(C)c2nc(Nc3ccc4c(c3)CN(CC(=O)N3CCC(Oc5ccc6c(c5)CN(C5CCC(=O)NC5=O)C6=O)CC3)CC4)ncc12 (centres unmarked) [Compound 106, 3-(5-((1-(2-(7-((3-((2,6-dimethylphenyl)amino)-1-methyl-1H-pyrazolo[3,4-d]pyrimidin-6-yl)amino)-3,4-dihydroisoquinolin-2 (1H)-yl)acetyl)piperidin-4-yl)oxy)-1-oxoisoindolin-2-yl)piperidin-2,6-one]"
14,0.0001 to 0.01,"Cc1cccc(C)c1Nc1nn(C)c2nc(Nc3ccc4c(c3)CN(CC3CCN(c5ccc6c(c5)C(=O)N(C5CCC(=O)N(COC(=O)C(C)(C)C)C5=O)C6=O)CC3)CC4)ncc12 (centres unmarked) [Compound 107, (3-(5-(4-((7-((3-((2,6-dimethylphenyl)amino)-1-methyl-1H-pyrazolo[3,4-d]pyrimidin-6-yl)amino)-3,4-dihydroisoquinolin-2 (1H)-yl)methyl)piperidin-1-yl)-1,3-dioxoisoindolin-2-yl)-2,6-dioxopiperidin-1-yl)methyl pivalate]"
15,0.0001 to 0.01,"Cc1cccc(C)c1Nc1nn(C)c2nc(Nc3ccc4c(c3)CN(CC(=O)Nc3ccc5c(c3)CN(C3CCC(=O)NC3=O)C5=O)CC4)ncc12 (centres unmarked) [Compound 108, 2-(7-((3-((2,6-Dimethylphenyl)amino)-1-methyl-1H-pyrazolo[3,4-d]pyrimidin-6-yl)amino)-3,4-dihydroisoquinolin-2 (1H)-yl)-N-(2-(2,6-dioxopiperidin-3-yl)-1-oxoisoindolin-5-yl)acetamide]"
16,0.01 to 1,"Cc1cccc(C)c1Nc1nn(C)c2nc(Nc3ccc4c(c3)CCN(CC3CCN(c5ccc6c(c5)C(=O)N(C5CCC(=O)NC5=O)C6=O)CC3)C4)ncc12 (centres unmarked) [Compound 109, 5-(4-((6-((3-((2,6-Dimethylphenyl)amino)-1-methyl-1H-pyrazolo[3,4-d]pyrimidin-6-yl)amino)-3,4-dihydroisoquinolin-2 (1H)-yl)methyl)piperidin-1-yl)-2-(2,6-dioxopiperidin-3-yl)isoindoline-1,3-dione]"
17,0.0001 to 0.01,"Cc1cccc(C)c1Nc1nn(C)c2nc(Nc3ccc4c(c3)CCN(CC3CCN(C(=O)CNc5ccc6c(c5)C(=O)N(C5CCC(=O)NC5=O)C6=O)CC3)C4)ncc12 (centres unmarked) [Compound 110, 5-((2-(4-((6-((3-((2,6-Dimethylphenyl)amino)-1-methyl-1H-pyrazolo[3,4-d]pyrimidin-6-yl)amino)-3,4-dihydroisoquinolin-2 (1H)-yl)methyl)piperidin-1-yl)-2-oxoethyl)amino)-2-(2,6-dioxopiperidin-3-yl)isoindoline-1,3-dione]"
18,0.01 to 1,"COc1ccc(C(=O)N2CCC(CC(=O)N3CCc4cc(Nc5ncc6c(Nc7c(C)cccc7C)nn(C)c6n5)ccc4C3)CC2)cc1N1CCC(=O)NC1=O [Compound 111, 1-(5-(4-(2-(6-((3-((2,6-Dimethylphenyl)amino)-1-methyl-1H-pyrazolo[3,4-d]pyrimidin-6-yl)amino)-3,4-dihydroisoquinolin-2 (1H)-yl)-2-oxoethyl)piperidine-1-carbonyl)-2-methoxyphenyl)dihydropyrimidine-2,4 (1H,3H)-dione]"
19,1 to 10,"COc1ccc(C(=O)N2CCC(CC(=O)N3CCc4ccc(Nc5ncc6c(Nc7c(C)cccc7C)nn(C)c6n5)cc4C3)CC2)cc1N1CCC(=O)NC1=O [Compound 112, 1-(5-(4-(2-(7-((3-((2,6-Dimethylphenyl)amino)-1-methyl-1H-pyrazolo[3,4-d]pyrimidin-6-yl)amino)-3,4-dihydroisoquinolin-2 (1H)-yl)-2-oxoethyl)piperidine-1-carbonyl)-2-methoxyphenyl)dihydropyrimidine-2,4 (1H,3H)-dione]"
20,1 to 10,"Cc1cccc(C)c1Nc1nn(C)c2nc(Nc3ccc4c(c3)CN(CC(=O)N3CCC(Oc5ccc6c(c5)C(=O)N(C5CCC(=O)NC5=O)C6)CC3)CC4)ncc12 (centres unmarked) [Compound 116, 3-(6-((1-(2-(7-((3-((2,6-dimethylphenyl)amino)-1-methyl-1H-pyrazolo[3,4-d]pyrimidin-6-yl)amino)-3,4-dihydroisoquinolin-2 (1H)-yl)acetyl)piperidin-4-yl)oxy)-1-oxoisoindolin-2-yl)piperidin-2,6-one]"
